From patent US20160175249A1, “Liposomes Containing Oligopeptide Fragments of Myelin Basic Protein, a Pharmaceutical Composition and a Method for Treatment of Multiple Sclerosis” (LIPOXEN TECHNOLOGIES LIMITED, priority 2009, published 2016)

Target: polyclonal serum anti-MBP antibodies isolated from immunized DA rats
Test: Surface plasmon resonance of autoAb binding to biotinylated MBP peptides and MBP
Conditions: SPR, BiaCore T-200, antibodies 50 μg/ml, immobilized peptide or MBP; for Kd: read-out: effective dissociation constant
Procedure: To quantify autoAb recognition of the identified MBP epitopes, and to confirm their sequence in vitro, the affinity of polyclonal serum anti-MBP antibodies isolated from immunized DA rats for biotinylated MBP peptides was determined by surface plasmon resonance (FIG. 2B). The effective dissociation constant of the full-length MBP protein (1.5×10^−8) was determined to be nanomolar, as were the dissociation constants for MBP encephalitogenic (9.6×10^−9) and C-terminal (8.4×10^−9) fragments, verifying their identity as major B cell epitopes.
All surface plasmon resonance measurements were performed on BiaCore T-200 apparatus (GE Healthcare, US). Biotinylated MBP peptides (50 μg/ml) (listed on FIG. 2) and MBP were immobilized on SA and CM-5 chips respectively. All procedures were performed according manufacture's recommendations. Flow rate of HBS-EP buffer was kept as 10 μl/min during all measurements. Antibodies (50 μg/ml) were tested on both chips with standard association/dissociation time 300/300 s. Dissociation constants were calculated using BiaCore T-200 Evaluation Software 1.0.

Row | Kd | effective dissociation constant | Molecule
1 | 8.4 nM |  | IFKLGGRDSRSGSPMARR [C-terminal fragment]
2 |  | not detectable | MDHARHGFLPRH [biotinylated MBP fragment]
3 | 9.6 nM |  | QDENPVVHFFKNIV [MBP encephalitogenic fragment]
4 | 15 nM |  | full-length MBP protein: myelin basic protein, 18.5 kDa, 171 amino acids (protein, MBP splice isoforms, myelin basic protein, 18.5 kDa, 171 amino acids) MASQKRPSQRHGSKYLATASTMDHARHGFLPRHRDTGILDSIGRFFGGDRGAPKRGSGKDSHHPARTAHYGSLPQKSHGRTQDENPVVHFFKNIVTPRTPPPSQGKGRGLSLSRFSWGAEGQRPGFGYGGRASDYKSAHKGFKGVDAQGTLSKIFKLGGRDSRSGSPMARR
